What all share (assay type): in vivo, humans
Assay [1] deals with bitter taste of KCl foodstuff slurries. As to the kind of experiment: Two-alternative forced choice (2AFC) sip and spit test of KCl turkey foodstuff slurries. The settings on record: turkey slurry with KCl 1.6%, 1% EtOH, 2AFC vs KCl slurry standard, dash = at none of the tested conc.; for minimal effective concentration: Homo sapiens. As to the method: Edible KCl food compositions (“KCl test foodstuff slurries”) were prepared as follows. Dehydrated, salt-free turkey powder was weighed and mixed with various amounts of KCl and/or NaCl and then solubilized with boiling water to create a homogenized solubilized turkey slurry. Varying amounts of the test compounds were dissolved in an amount of ethanol or water (depending on the solubility of the compound) to create a 5 mg/mL stock compound solution. An amount of this stock compound solution was then added to the turkey slurry. Enough EtOH is then added to the resulting stock compound/turkey slurry so that the slurry contains 1% EtOH. The slurry was again homogenized by boiling and mixing and allowed to cool to yield the final KCl test foodstuff slurry for taste testing. KCl foodstuff slurry standards were similarly prepared without any test compound. […] The effect of the test compounds on the perception of the bitter taste of KCl foodstuff slurries in humans was evaluated using a two-alternative-forced-choice “sip and spit” test as follows. In a blind taste test, panelists received two portions of turkey slurry—one portion being the KCl foodstuff slurry standard and the other being one of the KCl test foodstuff slurries (each prepared as described in Example 5). The panelists tasted each of the portions by sipping and spitting. Each sample was tested in 2-4 discrete taste test experiments. Panelists were asked to rinse with water, eat a cracker, and wait about 10 minutes between samples. In each case, the panelists were asked to compare the bitter taste of the two turkey samples to each other (i.e. panelists were asked to indicate which sample was less bitter).

For assay [2], the system named is bitter taste of an aqueous solution of KCl. As to the kind of experiment: Sip and spit taste test of aqueous KCl test solutions, bitterness rated 0-15 against KCl solution standards. The settings on record: aqueous KCl 4.85 g/L, 1% EtOH, human panel, vs KCl solution standard, dash = at none of the tested conc. As to the method:
Edible KCl solution compositions (“KCl test solutions”) were prepared by first dissolving varying amounts of the test compounds in an amount of ethanol or water (depending on the solubility of the compound) to create a 5 mg/mL stock compound solution. An amount of this stock compound solution is then added to an aqueous KCl solution. Enough EtOH is then added to the resulting stock compound/KCl solution so that the final KCl test solution contains 1% EtOH. KCl solution standards were similarly prepared by dissolving various amounts of KCl in water and ethanol without adding any test compound. […] The effect of the test compounds on the perception of the bitter taste of an aqueous solution of KCl in humans was evaluated using a “sip and Spit” test as follows. A set of KCl solutions standards was developed and each standard solution was assigned a bitterness taste score of 0-15 (corresponding to aqueous KCl concentrations of 0 mM-120 mM). Panelists were trained to recognize these standards. In addition, before each day of testing, panelists were tested to see if they could determine differences in taste between the standard solutions, if a panelist was unable to recognize a change in KCl concentration, they were excluded from the panel for that day. In a blind taste test, panelists were asked to compare the bitter taste of a small quantity (e.g. 8 ml) of each of the KCl Test Solutions to the taste of a KCl solution standard, without swallowing (see, e.g., Table 1). Specifically, panelists were asked to rate the bitterness of each KCl Test Solution on a scale of 0-15 using the same scale developed for the KCl solution standards. Each sample was tested in 2-4 discrete taste test experiments. Panelists were asked to rinse with water, eat a cracker, and wait approximately 10 minutes between samples.

For assay [3], the system named is bitter taste of an aqueous solution of potassium lactate. Kind of assay: Sip and spit taste test of aqueous potassium lactate test solutions. The settings on record: aqueous potassium lactate (KLac) 41 g/L, 1% EtOH, human panel, dash = at none of the tested conc. On the procedure: A set of KCl solutions standards was developed and each standard solution was assigned a bitterness taste score of 0-15 (corresponding to aqueous KCl concentrations of 0 mM-120 mM). Panelists were trained to recognize these standards. In addition, before each day of testing, panelists were tested to see if they could determine differences in taste between the standard solutions, if a panelist was unable to recognize a change in KCl concentration, they were excluded from the panel for that day. In a blind taste test, panelists were asked to compare the bitter taste of a small quantity (e.g. 8 ml) of each of the KCl Test Solutions to the taste of a KCl solution standard, without swallowing (see, e.g., Table 1). Specifically, panelists were asked to rate the bitterness of each KCl Test Solution on a scale of 0-15 using the same scale developed for the KCl solution standards. Each sample was tested in 2-4 discrete taste test experiments. Panelists were asked to rinse with water, eat a cracker, and wait approximately 10 minutes between samples. Edible potassium lactate solution compositions (“potassium lactate test solutions”) were prepared by first dissolving varying amounts of the test compounds in an amount of ethanol or water (depending on the solubility of the compound) to create a 5 mg/mL stock compound solution. An amount of this stock compound solution is then added to an aqueous potassium lactate solution. Enough EtOH is then added to the resulting stock compound/potassium lactate solution so that the final potassium lactate test solution contains 1% EtOH. Potassium lactate solution standards were similarly prepared by dissolving various amounts of potassium lactate in water and ethanol without adding any test compound. […] The effect of the test compounds on the perception of the bitter taste of an aqueous solution of potassium lactate in humans was evaluated using the “sip and spit” test described in Example 2.

The mark [4] stands for this setting: read-out: Conc. at Which At Least 50% of Panelist Discerned Decrease in Bitter Taste.
[5] abbreviates: read-out: Conc. Where Decrease in Bitter Taste Discerned and p ≦ 0.1.
Where [6] appears, read: read-out: Conc. Where Decrease in Bitter Taste Was Discerned.
[7] abbreviates: read-out: Conc. at Which At Least 50% of Panelist Discerned Decrease in Bitter Taste and p ≦ 0.1.

Where two headings read alike, the source gives them in different places.

Consider `COc1cc(CO)ccc1OCc1ccccc1C` [Compound 1], for which, in assay [1] (setting [4]), the minimal effective concentration was determined as 1 µg/mL.

On to `COc1cc(/C=N/c2ccccc2C)ccc1O` [Compound 2], for which the values for the minimal effective concentration in assay [2] (setting [5]) and in assay [1] (setting [4]) were 1 µg/mL and 10 µg/mL, respectively.

Consider `CCOc1ccc(CNc2ccccc2C)cc1OC` [Compound 3], for which the minimal effective concentration in assay [2] (setting [5]) was 2 µg/mL; in assay [2] (setting [6]), 2 µg/mL; in assay [3] (setting [5]), 1 µg/mL.

In the case of `CCOc1cc(CNc2ccccc2SC)ccc1OC` [Compound 4], the minimal effective concentration in assay [2] (setting [5]) turned out to be 10 µg/mL.

Turning to `COc1cccc(CNc2cccc(C)c2)c1OC` [Compound 5], the minimal effective concentration in assay [2] (setting [6]) is 10 µg/mL.

Turning to `CCOc1cc(CNc2cccc(Cl)c2C)ccc1OC` [Compound 6], the minimal effective concentration in assay [2] (setting [6]) came out at 1 µg/mL.

Take `COc1ccc(OC)c(CNc2cc(C)ccc2C)c1` [Compound 7]: in assay [2], the “Conc. Where Decrease in Bitter Taste Discerned and p ≦ 0.1” value came to 1 ppm; the “Conc. Where Decrease in Bitter Taste Was Discerned” value is 1 ppm. Besides, the “Conc. at Which At Least 50% of Panelist Discerned Decrease in Bitter Taste” value in assay [1] came out at 1 ppm.

Regarding `COc1ccc(CNc2ccc(Br)cc2C)cc1OC` [Compound 8], the minimal effective concentration in assay [2] (setting [6]) was found to be 1 µg/mL.

With `CCOc1cc(CNc2ccccc2)ccc1OC` [Compound 10], in assay [2], the “Conc. Where Decrease in Bitter Taste Discerned and p ≦ 0.1” value is listed as 1 ppm.

Take `CCOc1cc(CNc2cc(C)ccc2C)ccc1OC` [Compound 12]: the minimal effective concentration in assay [2] (setting [5]) and in assay [1] (setting [4]) was 10 µg/mL throughout.

For `COc1ccc(CNc2cc(C)ccc2C)cc1OC` [Compound 14], the “Conc. Where Decrease in Bitter Taste Discerned and p ≦ 0.1” value in assay [2] was 1 ppm. The “Conc. Where Decrease in Bitter Taste Was Discerned” value in assay [3] was found to be 5 ppm.

Regarding `COc1cccc(CNc2cc(C)ccc2C)c1OC` [Compound 15], the minimal effective concentration in assay [2] (setting [5]), in assay [1] (setting [4]) and in assay [1] (setting [7]) was 10 µg/mL in each case.

Turning to `CCOc1ccc(CNc2ccc(C)cc2C)cc1OC` [Compound 17], the “Conc. Where Decrease in Bitter Taste Was Discerned” value in assay [2] and in assay [3] was 1 ppm each time.

For `COc1ccccc1CNc1cc(C)ccc1OC` [Compound 19], the minimal effective concentration in assay [2] (setting [5]) stood at 1 µg/mL; in assay [2] (setting [6]), 1 µg/mL; in assay [1] (setting [7]) it was 10 µg/mL.

As for `COc1ccc(NCc2ccccc2C)cc1OC` [Compound 20], the minimal effective concentration in assay [2] (setting [5]) is 1 µg/mL; in assay [3] (setting [5]), 5 µg/mL.

For `COc1cc(CNc2cccc(C)c2C)ccc1OCc1ccccc1` [Compound 22], the minimal effective concentration in assay [2] (setting [5]) stood at 1 µg/mL.

Consider `COC(=O)c1ccccc1NC(=O)c1c(Cl)cnn1C` [Compound 27], for which, in assay [1] (setting [4]), the minimal effective concentration was found to be 30 µg/mL.

With `CCn1ncc(Cl)c1C(=O)Nc1cc(Cl)ccc1Cl` [Compound 28], in assay [1], the “Conc. at Which At Least 50% of Panelist Discerned Decrease in Bitter Taste” value is 10 ppm.

In the case of `CCn1ncc(Cl)c1C(=O)Nc1cccc(Cl)c1Cl` [Compound 29], the “Conc. Where Decrease in Bitter Taste Discerned and p ≦ 0.1” value in assay [2] is on record as 10 ppm. For the same compound, the “Conc. Where Decrease in Bitter Taste Was Discerned” value in assay [3] came out at 5 ppm. For the same compound, in assay [1], the “Conc. at Which At Least 50% of Panelist Discerned Decrease in Bitter Taste” value is 1 ppm; the “Conc. at Which At Least 50% of Panelist Discerned Decrease in Bitter Taste and p ≦ 0.1” value came to 1 ppm.

For `COC(=O)c1ccc(C)c(NC(=O)c2c(Cl)cnn2C)c1` [Compound 31], the “Conc. at Which At Least 50% of Panelist Discerned Decrease in Bitter Taste” value in assay [1] is 1 ppm.

Turning to `Cn1ncc(Cl)c1C(=O)Nc1ccccc1C(N)=O` [Compound 33], the minimal effective concentration in assay [2] (setting [6]) was determined as 1 µg/mL.

Consider `CCn1ccc(C(=O)Nc2cc(OC)c(OC)cc2C(=O)OC)n1` [Compound 35], for which the minimal effective concentration was found to be 1 µg/mL in assay [2] (setting [5]), 1 µg/mL in assay [2] (setting [6]) and 10 µg/mL in assay [1] (setting [4]).

`CCn1ccc(C(=O)Nc2ccccc2C(=O)OC)n1` [Compound 36]: the minimal effective concentration in assay [2] (setting [5]) and in assay [1] (setting [4]) was 10 µg/mL each time.

Consider `CC(=O)Oc1ccc(C2Nc3c(C(=O)O)cccc3C3C=CCC32)cc1` (centres unmarked) [Compound 39], for which, in assay [1] (setting [7]), the minimal effective concentration was 10 µg/mL.

In the case of `COC(=O)c1cccc2c1NC(c1ccc(Cl)cc1)C1CC=CC21` (centres unmarked) [Compound 42], in assay [1] (setting [4]), the minimal effective concentration was 1 µg/mL.

`O=C(O)c1cc(Br)cc2c1NC(c1ccc(Cl)cc1)C1CC=CC21` (centres unmarked) [Compound 43]: the minimal effective concentration in assay [2] (setting [6]) came out at 1 µg/mL.

As for `Cc1c2ccccc2nc2c(F)c(N3CCN(C)CC3)c(F)c(F)c12` [Compound 44], the minimal effective concentration in assay [2] (setting [5]), in assay [2] (setting [6]), in assay [3] (setting [5]) and in assay [1] (setting [4]) was 10 µg/mL in each case.

For `Cc1c2ccccc2nc2c(F)c(N3CCCC3)c(F)c(F)c12` [Compound 45], the minimal effective concentration in assay [2] (setting [5]) is 0.1 µg/mL; in assay [1] (setting [4]) it was 1 µg/mL.

As for `Cc1ccc2nc3c(F)c(N4CCOCC4)c(F)c(F)c3c(C)c2c1` [Compound 46], the minimal effective concentration is 1 µg/mL in assay [2] (setting [5]), 30 µg/mL in assay [3] (setting [6]) and 1 µg/mL in assay [1] (setting [4]).

`Cc1nc2c(C)ccc(C)c2c(O)c1CN1CCN(c2ccccc2)CC1` [Compound 47]: the minimal effective concentration in assay [1] (setting [4]) and in assay [1] (setting [7]) was 10 µg/mL in each case.

With `Cc1nc2c(C)cccc2c(O)c1CN1CCN(c2ccccc2)CC1` [Compound 48], the minimal effective concentration in assay [2] (setting [5]) is 1 µg/mL; in assay [3] (setting [5]) it was 1 µg/mL; in assay [3] (setting [6]), 1 µg/mL; in assay [1] (setting [4]), 10 µg/mL.

Turning to `CCCC(=O)Nc1ccc(C)c(Cl)c1` [Compound 50], the minimal effective concentration in assay [2] (setting [6]) worked out at 1 µg/mL.

`COc1ccc(NC(=O)CCOc2cccc(C)c2)cc1` [Compound 52]: the “Conc. Where Decrease in Bitter Taste Discerned and p ≦ 0.1” value turned out to be 10 ppm in assay [2] and 30 ppm in assay [3]. The “Conc. at Which At Least 50% of Panelist Discerned Decrease in Bitter Taste and p ≦ 0.1” value in assay [1] was 10 ppm.

Consider `Cc1ccc(NC(=O)CCOc2ccccc2)c(C)c1` [Compound 54], for which the minimal effective concentration in assay [1] (setting [4]) came out at 1 µg/mL.

Values taken from US20130101684A1, “Compounds, Compositions, And Methods For Reducing Or Eliminating Bitter Taste” (Chromocell Corporation, priority 2010, published 2013).
